Test results reported in patent US11981658B2, “Substituted aminopyridine compounds as EGFR inhibitors” (YUHAN CORPORATION, priority 2021, dated 2024).
Where two headings read alike, the source gives them in different places.

Key:
EGFR L858R/C797S = EGFR L858R/C797S (Homo sapiens, UniProt P00533, C797S/L858R); experiment: Biochemical EGFR kinase inhibition assay (Lance Ultra TR-FRET), double mutant L858R/C797S
Procedure, shortened: (§1)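 Step 1: compound in kinase buffer, 0.003–10 μM. Step 2: kinase reaction 1 h at room temperature. Step 4: TR-FRET read at 615/665 nm; IC50 calculated.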

EGFR Del19/C797S = EGFR Del19/C797S (Homo sapiens, UniProt P00533, C797S/DEL746-750); experiment: Biochemical EGFR kinase inhibition assay (Lance Ultra TR-FRET), double mutant del19/C797S
EGFR Del19/C797S, sequence (P00533 with tags, fused parts or gaps DEL746-750/C797S): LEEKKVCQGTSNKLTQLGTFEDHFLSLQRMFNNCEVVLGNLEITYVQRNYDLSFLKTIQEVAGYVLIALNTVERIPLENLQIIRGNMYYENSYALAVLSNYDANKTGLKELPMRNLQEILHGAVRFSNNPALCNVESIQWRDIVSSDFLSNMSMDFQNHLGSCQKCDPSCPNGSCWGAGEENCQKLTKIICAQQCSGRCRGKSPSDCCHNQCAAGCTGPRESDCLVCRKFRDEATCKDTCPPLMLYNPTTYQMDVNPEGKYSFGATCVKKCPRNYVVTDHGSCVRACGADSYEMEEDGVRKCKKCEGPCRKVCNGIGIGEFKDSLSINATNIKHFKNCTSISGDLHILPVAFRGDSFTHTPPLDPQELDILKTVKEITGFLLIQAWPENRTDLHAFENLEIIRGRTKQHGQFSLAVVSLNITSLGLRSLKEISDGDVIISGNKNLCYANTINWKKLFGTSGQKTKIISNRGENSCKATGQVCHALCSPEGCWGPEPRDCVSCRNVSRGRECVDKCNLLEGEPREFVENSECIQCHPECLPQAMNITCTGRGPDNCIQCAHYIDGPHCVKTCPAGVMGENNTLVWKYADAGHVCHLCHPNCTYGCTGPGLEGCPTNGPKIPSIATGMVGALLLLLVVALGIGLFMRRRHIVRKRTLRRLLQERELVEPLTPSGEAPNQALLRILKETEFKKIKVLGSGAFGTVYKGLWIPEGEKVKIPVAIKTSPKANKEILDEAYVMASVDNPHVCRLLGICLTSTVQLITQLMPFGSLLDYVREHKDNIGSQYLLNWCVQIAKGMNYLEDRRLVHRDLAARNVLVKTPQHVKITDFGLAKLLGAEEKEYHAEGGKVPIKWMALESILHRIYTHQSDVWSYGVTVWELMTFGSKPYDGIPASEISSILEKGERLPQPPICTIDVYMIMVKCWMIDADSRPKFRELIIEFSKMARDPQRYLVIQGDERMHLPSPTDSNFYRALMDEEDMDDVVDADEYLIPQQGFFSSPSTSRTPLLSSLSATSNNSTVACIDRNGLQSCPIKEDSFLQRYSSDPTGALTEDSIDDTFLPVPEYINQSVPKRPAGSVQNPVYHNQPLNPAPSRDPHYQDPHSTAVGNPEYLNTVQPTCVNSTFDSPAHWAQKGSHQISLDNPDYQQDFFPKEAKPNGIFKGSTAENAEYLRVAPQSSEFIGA
Procedure, shortened: as §1

EGFR Del19/T790M/C797S = EGFR Del19/T790M/C797S (Homo sapiens, UniProt P00533, C797S/DEL746-750/T790M); experiment: Biochemical EGFR kinase inhibition assay (Lance Ultra TR-FRET), triple mutant del19/T790M/C797S
EGFR Del19/T790M/C797S, sequence (P00533 with tags, fused parts or gaps DEL746-750/T790M/C797S): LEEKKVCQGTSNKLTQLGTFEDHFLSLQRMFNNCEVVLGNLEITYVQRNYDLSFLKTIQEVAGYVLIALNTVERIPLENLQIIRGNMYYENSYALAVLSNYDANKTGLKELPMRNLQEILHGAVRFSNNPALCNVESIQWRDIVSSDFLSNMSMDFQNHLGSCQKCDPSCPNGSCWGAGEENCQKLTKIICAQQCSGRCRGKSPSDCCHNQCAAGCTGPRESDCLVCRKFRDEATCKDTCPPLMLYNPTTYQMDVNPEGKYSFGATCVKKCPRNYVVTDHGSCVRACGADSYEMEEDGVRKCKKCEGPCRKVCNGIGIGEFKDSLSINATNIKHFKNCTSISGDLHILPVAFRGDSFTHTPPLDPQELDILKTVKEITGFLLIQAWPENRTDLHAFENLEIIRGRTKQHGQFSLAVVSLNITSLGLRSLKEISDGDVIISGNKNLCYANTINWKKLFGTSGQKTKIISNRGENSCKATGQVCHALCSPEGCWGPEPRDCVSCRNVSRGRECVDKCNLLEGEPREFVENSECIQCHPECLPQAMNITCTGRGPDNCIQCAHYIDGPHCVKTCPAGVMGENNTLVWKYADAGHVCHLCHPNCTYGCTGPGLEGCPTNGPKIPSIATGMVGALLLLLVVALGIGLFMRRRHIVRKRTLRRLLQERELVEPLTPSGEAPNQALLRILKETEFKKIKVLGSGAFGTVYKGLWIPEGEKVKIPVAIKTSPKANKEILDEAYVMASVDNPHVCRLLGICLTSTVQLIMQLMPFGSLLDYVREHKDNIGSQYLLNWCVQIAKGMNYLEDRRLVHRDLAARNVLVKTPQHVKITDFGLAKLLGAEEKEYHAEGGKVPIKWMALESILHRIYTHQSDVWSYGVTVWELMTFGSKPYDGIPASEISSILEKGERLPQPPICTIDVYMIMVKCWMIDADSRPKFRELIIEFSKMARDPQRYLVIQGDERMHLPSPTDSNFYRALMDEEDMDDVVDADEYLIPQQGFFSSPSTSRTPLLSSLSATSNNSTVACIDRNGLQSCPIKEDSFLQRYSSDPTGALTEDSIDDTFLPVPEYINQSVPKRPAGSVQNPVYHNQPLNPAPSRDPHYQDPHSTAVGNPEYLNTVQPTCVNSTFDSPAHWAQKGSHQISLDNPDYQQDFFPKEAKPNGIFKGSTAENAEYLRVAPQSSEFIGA
Procedure, shortened: as §1

EGFR L858R/T790M/C797S = EGFR L858R/T790M/C797S (Homo sapiens, UniProt P00533, C797S/L858R/T790M); experiment: Biochemical EGFR kinase inhibition assay (Lance Ultra TR-FRET), triple mutant L858R/T790M/C797S
Procedure, shortened: as §1

EGFR wildtype (WT) = EGFR wildtype (WT) (Homo sapiens, UniProt P00533); experiment: Biochemical EGFR kinase inhibition assay (Lance Ultra TR-FRET), wildtype
EGFR wildtype (WT), sequence (P00533 25-1210): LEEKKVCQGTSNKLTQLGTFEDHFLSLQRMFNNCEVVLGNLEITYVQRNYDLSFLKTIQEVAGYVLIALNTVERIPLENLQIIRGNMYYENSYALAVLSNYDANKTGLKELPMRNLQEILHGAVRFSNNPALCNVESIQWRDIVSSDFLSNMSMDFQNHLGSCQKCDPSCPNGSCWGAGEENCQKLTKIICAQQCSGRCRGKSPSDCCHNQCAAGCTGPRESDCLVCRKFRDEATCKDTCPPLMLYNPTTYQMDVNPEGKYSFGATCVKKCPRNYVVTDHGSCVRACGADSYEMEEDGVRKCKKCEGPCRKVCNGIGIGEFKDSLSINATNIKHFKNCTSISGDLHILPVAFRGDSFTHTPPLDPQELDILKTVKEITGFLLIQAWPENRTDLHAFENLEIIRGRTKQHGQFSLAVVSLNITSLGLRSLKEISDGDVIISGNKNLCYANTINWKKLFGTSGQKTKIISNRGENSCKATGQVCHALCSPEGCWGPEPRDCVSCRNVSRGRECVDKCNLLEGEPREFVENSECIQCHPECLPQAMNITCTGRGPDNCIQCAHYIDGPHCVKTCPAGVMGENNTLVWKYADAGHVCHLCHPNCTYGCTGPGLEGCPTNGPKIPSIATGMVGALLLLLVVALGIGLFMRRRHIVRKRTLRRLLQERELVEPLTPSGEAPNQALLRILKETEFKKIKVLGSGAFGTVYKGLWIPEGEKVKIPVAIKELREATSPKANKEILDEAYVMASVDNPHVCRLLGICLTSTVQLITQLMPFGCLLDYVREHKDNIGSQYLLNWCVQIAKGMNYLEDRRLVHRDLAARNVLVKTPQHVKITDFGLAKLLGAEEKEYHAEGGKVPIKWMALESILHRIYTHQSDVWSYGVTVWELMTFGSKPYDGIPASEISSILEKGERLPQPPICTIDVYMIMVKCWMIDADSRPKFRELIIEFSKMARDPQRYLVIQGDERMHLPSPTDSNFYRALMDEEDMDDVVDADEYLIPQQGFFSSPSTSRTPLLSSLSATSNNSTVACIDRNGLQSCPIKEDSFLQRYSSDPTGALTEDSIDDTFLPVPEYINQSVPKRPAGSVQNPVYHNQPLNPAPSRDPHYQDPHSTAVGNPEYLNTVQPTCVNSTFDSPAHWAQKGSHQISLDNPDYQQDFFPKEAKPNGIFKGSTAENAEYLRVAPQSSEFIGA
Procedure, shortened: as §1

[1] = IC50 L858R/C797S (nM), 100 μM ATP
[2] = Km ATP, read-out: IC50 L858R/C797S (nM), Km ATP
[3] = IC50 Del19/C797S (nM), 100 μM ATP
[4] = Km ATP, read-out: IC50 Del19/C797S (nM), Km ATP
[5] = IC50 Del19/T790M/C797S (nM), 100 μM ATP
[6] = Km ATP, read-out: IC50 Del19/T790M/C797S (nM), Km ATP
[7] = IC50 L858R/T790M/C797S (nM), 100 μM ATP
[8] = Km ATP, read-out: IC50 L858R/T790M/C797S (nM), Km ATP
[9] = Km ATP, read-out: IC50 WT (nM), Km ATP
[10] = Km ATP, read-out: IC50 L858R/C797S (nM) Km ATP
[11] = Km ATP, read-out: IC50 Del19/C797S (nM) Km ATP
[12] = Km ATP, read-out: IC50 Del19/T790M/C797S (nM) Km ATP
[13] = Km ATP, read-out: IC50 L858R/T790M/C797S (nM) Km ATP
[14] = Km ATP, read-out: IC50 WT (nM) Km ATP

EGFR L858R/C797S, sequence (P00533 25-1210 C797S/L858R): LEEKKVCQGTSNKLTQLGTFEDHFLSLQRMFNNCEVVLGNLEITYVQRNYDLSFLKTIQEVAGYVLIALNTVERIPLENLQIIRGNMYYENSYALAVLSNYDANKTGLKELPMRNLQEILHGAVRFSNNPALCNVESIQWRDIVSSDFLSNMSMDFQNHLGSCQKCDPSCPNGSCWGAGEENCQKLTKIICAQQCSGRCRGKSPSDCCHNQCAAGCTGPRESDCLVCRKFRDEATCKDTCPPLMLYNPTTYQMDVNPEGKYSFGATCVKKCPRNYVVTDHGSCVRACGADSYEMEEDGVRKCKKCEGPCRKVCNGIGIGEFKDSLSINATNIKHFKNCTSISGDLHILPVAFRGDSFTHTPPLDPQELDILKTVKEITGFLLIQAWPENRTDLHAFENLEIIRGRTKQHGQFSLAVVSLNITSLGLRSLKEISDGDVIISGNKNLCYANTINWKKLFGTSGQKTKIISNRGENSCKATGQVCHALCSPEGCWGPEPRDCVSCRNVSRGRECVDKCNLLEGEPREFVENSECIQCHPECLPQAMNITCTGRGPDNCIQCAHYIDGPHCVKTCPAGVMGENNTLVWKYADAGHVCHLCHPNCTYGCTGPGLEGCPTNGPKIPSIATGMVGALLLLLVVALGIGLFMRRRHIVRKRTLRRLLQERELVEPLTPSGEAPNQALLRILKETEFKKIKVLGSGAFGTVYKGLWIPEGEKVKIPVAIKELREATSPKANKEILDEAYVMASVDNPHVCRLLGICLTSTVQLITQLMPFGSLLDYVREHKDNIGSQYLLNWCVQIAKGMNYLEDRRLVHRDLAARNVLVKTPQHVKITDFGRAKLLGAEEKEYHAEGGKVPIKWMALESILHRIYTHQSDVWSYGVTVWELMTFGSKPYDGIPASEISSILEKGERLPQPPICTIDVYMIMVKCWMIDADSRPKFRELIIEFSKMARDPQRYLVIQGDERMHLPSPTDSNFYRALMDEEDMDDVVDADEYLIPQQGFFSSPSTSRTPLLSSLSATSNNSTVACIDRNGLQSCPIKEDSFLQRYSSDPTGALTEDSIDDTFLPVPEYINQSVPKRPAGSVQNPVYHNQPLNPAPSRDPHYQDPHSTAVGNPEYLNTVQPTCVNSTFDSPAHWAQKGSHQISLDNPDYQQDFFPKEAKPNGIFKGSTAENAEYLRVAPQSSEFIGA

IC50 (EGFR L858R/C797S; [1]) [nM]	IC50 (EGFR L858R/C797S; [2]) [nM]	IC50 (EGFR Del19/C797S; [3]) [nM]	IC50 (EGFR Del19/C797S; [4]) [nM]	IC50 (EGFR Del19/T790M/C797S; [5]) [nM]	IC50 (EGFR Del19/T790M/C797S; [6]) [nM]	IC50 (EGFR L858R/T790M/C797S; [7]) [nM]	IC50 (EGFR L858R/T790M/C797S; [8]) [nM]	IC50 (EGFR wildtype (WT); IC50 WT (nM), 100 μM ATP) [nM]	IC50 (EGFR wildtype (WT); [9]) [nM]	IC50 (EGFR L858R/C797S; [10]) [nM]	IC50 (EGFR Del19/C797S; [11]) [nM]	IC50 (EGFR Del19/T790M/C797S; [12]) [nM]	IC50 (EGFR L858R/T790M/C797S; [13]) [nM]	IC50 (EGFR wildtype (WT); [14]) [nM]	Structure (SMILES)
141	5.3	5.2	3.1	0.6	0.4	0.7	0.3	> 10000	11.4	–	–	–	–	–	CC1OCCC1C#Cc1cnc(Nc2ccnc(-c3cnn(S(=O)(=O)C4CC4)c3)n2)cc1N1CCC(C)(O)CC1 (stereo not shown) [Example 432, 1-(2-((2-(1-(Cyclopropylsulfonyl)-1H-pyrazol-4-yl)pyrimidin-4-yl)amino)-5-((2-methyltetrahydrofuran-3-yl)ethynyl)pyridin-4-yl)-4-methylpiperidin-4-ol]
624	38.6	127	33.3	6.6	2.7	19.3	2	> 10000	312	–	–	–	–	–	CS(=O)(=O)N1CCC(C#Cc2cnc(Nc3ccnc(-c4cnn(S(=O)(=O)C5CC5)c4)n3)cc2NC[C@H]2CC[C@H](CO)CC2)CC1 [Example 388, ((1r,4r)-4-(((2-((2-(1-(Cyclopropylsulfonyl)-1H-pyrazol-4-yl)pyrimidin-4-yl)amino)-5-((1-(methylsulfonyl)piperidin-4-yl)ethynyl)pyridin-4-yl)amino)methyl)cyclohexyl)methanol]
> 10000	–	325	197	8	6	10.9	3.3	> 10000	–	–	–	–	–	–	CC(C)(O)[C@H]1CC[C@@H](Nc2cc(Nc3ccnc(-c4cnn(S(=O)(=O)C5CC5)c4)n3)ncc2C#Cc2cnn(C(F)(F)F)c2)CC1 [Example 337, 2-((1s,4s)-4-((2-((2-(1-(Cyclopropylsulfonyl)-1H-pyrazol-4-yl)pyrimidin-4-yl)amino)-5-((1-(trifluoromethyl)-1H-pyrazol-4-yl)ethynyl)pyridin-4-yl)amino)cyclohexyl)propan-2-ol]
97.5	7.1	4.8	3.9	1	1.1	1.5	0.4	> 10000	31	–	–	–	–	–	CN(C)CCC1CCN(c2cc(Nc3ccnc(-c4cnn(S(=O)(=O)C5CC5)c4)n3)ncc2C#CC2CCO[C@H]2C(F)(F)F)CC1 (stereo partly drawn) [Example 419, 2-(1-(Cyclopropylsulfonyl)-1H-pyrazol-4-yl)-N-(4-(4-(2-(dimethylamino)ethyl)piperidin-1-yl)-5-(((2R)-2-(trifluoromethyl)tetrahydrofuran-3-yl)ethynyl)pyridin-2-yl)pyrimidin-4-amine]
14.3	1.1	4.9	4.7	2.1	4.2	0.8	1.4	651	14.1	–	–	–	–	–	CC1(CO)CCN(c2cc(Nc3ccnc(-c4cnn(S(=O)(=O)C5CC5)c4)n3)ncc2C#Cc2cnn(CC(F)(F)F)c2)CC1 [Example 348, (1-(2-((2-(1-(Cyclopropylsulfonyl)-1H-pyrazol-4-yl)pyrimidin-4-yl)amino)-5-((1-(2,2,2-trifluoroethyl)-1H-pyrazol-4-yl)ethynyl)pyridin-4-yl)-4-methylpiperidin-4-yl)methanol]
53.4	4.3	2.3	2.1	0.4	0.4	0.4	0.2	4970	9.2	–	–	–	–	–	CN(C)CCC1CCN(c2cc(Nc3ccnc(-c4cnn(S(=O)(=O)C5CC5)c4)n3)ncc2C#Cc2cnn(C(F)(F)F)c2)CC1 [Example 335, 2-(1-(Cyclopropylsulfonyl)-1H-pyrazol-4-yl)-N-(4-(4-(2-(dimethylamino)ethyl)piperidin-1-yl)-5-((1-(trifluoromethyl)-1H-pyrazol-4-yl)ethynyl)pyridin-2-yl)pyrimidin-4-amine]
1750	50.1	38.2	26.1	3.9	2	2.4	1.3	> 10000	295	–	–	–	–	–	O=S(=O)(C1CC1)n1cc(-c2nccc(Nc3cc(N[C@H]4CC[C@@H](CO)CC4)c(C#Cc4cnn(C(F)(F)F)c4)cn3)n2)cn1 [Example 336, ((1s,4s)-4-((2-((2-(1-(Cyclopropylsulfonyl)-1H-pyrazol-4-yl)pyrimidin-4-yl)amino)-5-((1-(trifluoromethyl)-1H-pyrazol-4-yl)ethynyl)pyridin-4-yl)amino)cyclohexyl)methanol]
63.4	19.2	5.1	3	1.3	0.6	2.1	0.4	> 10000	25.6	–	–	–	–	–	O=S(=O)(C1CC1)N1CCC(C#Cc2cnc(Nc3ccnc(-c4cnn(S(=O)(=O)C5CC5)c4)n3)cc2N[C@H]2CC[C@@H](O)CC2)CC1 [Example 391, (1s,4s)-4-((2-((2-(1-(Cyclopropylsulfonyl)-1H-pyrazol-4-yl)pyrimidin-4-yl)amino)-5-((1-(cyclopropylsulfonyl)piperidin-4-yl)ethynyl)pyridin-4-yl)amino)cyclohexan-1-ol]
78.6	–	52.2	–	3.7	–	6.8	–	> 10000	–	–	–	–	–	–	CN(C)CC1(O)CCN(c2cc(Nc3ccnc(-c4cnn(S(=O)(=O)C5CC5)c4)n3)ncc2C#Cc2cnn(C)c2)CC1 [Example 315, 1-(2-((2-(1-(Cyclopropylsulfonyl)-1H-pyrazol-4-yl)pyrimidin-4-yl)amino)-5-((1-methyl-1H-pyrazol-4-yl)ethynyl)pyridin-4-yl)-4-((dimethylamino)methyl)piperidin-4-ol]
8.1	–	3.1	–	1	–	2.1	–	> 10000	–	1.5	3	1	0.6	12.8	O=S(=O)(C1CC1)n1cc(-c2nccc(Nc3cc(N4CCC(F)(CO)CC4)c(C#Cc4cnn(C5CCOCC5)c4)cn3)n2)cn1 [Example 96, (1-(2-((2-(1-(Cyclopropylsulfonyl)-1H-pyrazol-4-yl)pyrimidin-4-yl)amino)-5-((1-(tetrahydro-2H-pyran-4-yl)-1H-pyrazol-4-yl)ethynyl)pyridin-4-yl)-4-fluoropiperidin-4-yl)methanol]
4.1	–	0.5	–	0.3	–	0.3	–	783	–	0.3	0.3	0.3	0.1	3.1	CN(C)CCCn1cc(C#Cc2cnc(Nc3ccnc(-c4cnn(S(=O)(=O)C5CC5)c4)n3)cc2N2CCC(F)(CO)CC2)cn1 [Example 121, (1-(2-((2-(1-(Cyclopropylsulfonyl)-1H-pyrazol-4-yl)pyrimidin-4-yl)amino)-5-((1-(3-(dimethylamino)propyl)-1H-pyrazol-4-yl)ethynyl)pyridin-4-yl)-4-fluoropiperidin-4-yl)methanol]
